Measurements as given in patent US5013841A, “Oxo quinoline derivatives” (Dainippon Pharmaceutical Co., Ltd., priority 1987, dated 1991).
≈ marks a conversion by molar mass, not a printed value. Read-outs that look alike come from different tables or passages of the source.

Legend:
S. aureus Terajima = assay: In vitro antibacterial activity (twofold agar-dilution method); type: cell-based; conditions: Staphylococcus aureus, 20 h, read-out: minimum inhibitory concentration (MIC)
Description: (§1) The figures in the table show minimum inhibitory concentrations (MIC) (μg/ml), calculated for free base. The minimum inhibitory concentration was determined by the twofold agar-dilution method, which was recommended by Japan Society of Chemotherapy (Chemotherapy, 29(1), 76(1981)), using Muller-Hinton agar. One loopful of an overnight culture of test organisms in Mueller-Hinton broth was inoculated onto 10-ml drug-containing agar layers in petri dishes. Bacterial inocula contained approximately 10^6 colonyl-formingunits. Bacterial growth was observed after 20-hour incubation at 37° C. The MIC was defined as the lowest drug concentration which prevented visible bacterial growth.

Flavobacterium sp P-7201 = assay: as above; type: cell-based; conditions: read-out: minimum inhibitory concentration (MIC)
Description: as §1

E. coli P-5101 = assay: as above; type: cell-based; conditions: Escherichia coli, P5101; E. coli P-5101; agar dilution, 20 h, 37° C., calculated for free base; read-out: minimum inhibitory concentration (MIC)
Description: as §1

S. aureus No. 80 = assay: as above; type: cell-based; conditions: Staphylococcus aureus; S. aureus No. 80; agar dilution, 20 h, 37° C., calculated for free base; read-out: minimum inhibitory concentration (MIC)
Description: as §1

S. marcescens IFO 3736 = assay: as above; type: cell-based; conditions: Serratia marcescens, IFO3736; S. marcescens IFO 3736; agar dilution, 20 h, 37° C., calculated for free base; read-out: minimum inhibitory concentration (MIC)
Description: as §1

S. pyogenes Cook = assay: as above; type: cell-based; conditions: Streptococcus pyogenes, 20 h, 37° C., calculated for free base, read-out: minimum inhibitory concentration (MIC)
Description: as §1

P. Aeruginosa 12 = assay: as above; type: cell-based; conditions: Pseudomonas aeruginosa, 20 h, read-out: minimum inhibitory concentration (MIC)
Description: as §1

[1] = tested on: Streptococcus pyogenes A65; conditions: A65, in Mus musculus, po, 168 h, read-out: median effective dose (ED50)
[2] = Urinary excretion in mice (thin-layer cup-plated method, Escherichia coli Kp indicator); type: in vivo; conditions: mouse, urine, oral, 5 mg/kg, read-out: Urinary recovery for 24 hours
Description: A suspension containing each of compounds was orally administered to mice at a dose of 5 mg/kg. Urine was collected over a period of 24 hours after adminstration. The levels of the compounds in urine were determined by the thin-layer cup-plated method using Escherichia coli Kp as an indicator organism.

[3] = tested on: Pseudomonas aeruginosa 12; conditions: Pseudomonas aeruginosa, 12, in Mus musculus, po, 168 h, read-out: median effective dose (ED50)
[4] = tested on: Streptococcus pneumoniae 1 Neufeld; type: in vivo, Streptococcus pneumoniae (male mice, Std-ddY); conditions: 336 h, mice, oral, four times (immediately, 6, 24 and 30 h after intraperitoneal infection), 14 days, calculated for free base, read-out: median effective dose (ED50)
[5] = tested on: Staphylococcus aureus 50774; type: in vivo, Staphylococcus aureus (male mice, Std-ddY); conditions: Staphylococcus aureus, 50774, 336 h; mice, oral, twice (immediately and 6 h after intravenous infection), 14 days, calculated for free base; read-out: median effective dose (ED50)
Text: Staphylococcus aureus 50774
Intravenous infection with 5×10^8 cells per mouse suspended in saline.
For 7 days for other organisms.

| Compound | MIC (S. aureus Terajima; S. aureus Terajima, agar dilution, 37° C., calculated for free base) | MIC (Flavobacterium sp P-7201; P7201, Flavobacterium sp P-7201, agar dilution, 20 h, 37° C., calculated for free base) | MIC (E. coli P-5101) | MIC (S. aureus No. 80) | MIC (S. marcescens IFO 3736) | MIC (S. pyogenes Cook) | MIC (P. Aeruginosa 12; P. Aeruginosa 12, agar dilution, 37° C., calculated for free base) | ED50 [1] | dose excreted at 24 h [2] | ED50 [3] | ED50 [4] | MIC (S. aureus Terajima) | MIC (Flavobacterium sp P-7201; Flavobacterium, P7201, 20 h) | MIC (P. Aeruginosa 12) | ED50 [5] |
| --- | --- | --- | --- | --- | --- | --- | --- | --- | --- | --- | --- | --- | --- | --- | --- |
| Nc1c(F)c(N2CCNCC2)cc2c1c(=O)c(C(=O)O)cn2C1CC1 [Compound 1] | 0.05 µg/mL (≈ 0.144 µM) | 0.1 µg/mL (≈ 0.289 µM) | 0.0063 µg/mL (≈ 0.0182 µM) | 0.05 µg/mL (≈ 0.144 µM) | 0.1 µg/mL (≈ 0.289 µM) | 0.2 µg/mL (≈ 0.577 µM) | 0.05 µg/mL (≈ 0.144 µM) |  |  |  |  |  |  |  |  |
| C[C@@H]1CN(c2cc3c(c(N)c2F)c(=O)c(C(=O)O)cn3C2CC2)C[C@H](C)N1 [Compound 2, 5-amino-1-cyclopropyl-6-fluoro-7-(cis-3,5-dimethyl-1-piperazinyl)-1,4-dihydro-4-oxoquinoline-3-carboxylic acid] |  |  | 0.025 µg/mL (≈ 0.0668 µM) | 0.025 µg/mL (≈ 0.0668 µM) | 0.78 µg/mL (≈ 2.08 µM) | 0.39 µg/mL (≈ 1.04 µM) |  | 11.6 mg/kg | 8.33% | 1.98 mg/kg | 10.2 mg/kg | 0.05 µg/mL (≈ 0.134 µM) | 0.1 µg/mL (≈ 0.267 µM) | 0.39 µg/mL (≈ 1.04 µM) | 1.41 mg/kg |
